Experimental data from publication PMC11574108, “4-Furanylvinylquinoline derivative as a new scaffold for the design of oxidative stress initiator and glucose transporter inhibitor drugs” (Scientific Reports, 2024).

Columns and labels:
[1] = system: NHDF; experiment: Monolayer MTS cytotoxicity against normal cells; format: cell-based; settings: NHDF, normal human dermal fibroblasts, 72-h incubation
Source text: (§1) The human colon carcinoma cell line HCT 116 with wild-type p53 (p53^+/+) and the human glioblastoma cell line U-251 were obtained from ATCC, while the HCT 116 with a p53 deletion (p53^−/−) was kindly provided by Prof. M. Rusin from the Maria Sklodowska-Curie Memorial Cancer Center and Institute of Oncology in Gliwice, Poland. The human chronic myelogenous leukaemia cell line K562 and the normal human cell dermal fibroblast cell line NHDF were purchased from Sigma-Aldrich and PromoCell, respectively. Both the HCT 116 and U-251 cell lines were cultured in Dulbecco’s modified Eagle’s medium (DMEM) supplemented with 10% inactivated foetal bovine serum (FBS). The DMEM for the NHDF contained 15% non-inactivated FBS. K562 cells were cultured in RPMI medium completed by 10% inactivated FBS. Additionally, the media were supplemented with antibiotics (streptomycin and penicillin – 1% v/v; Sigma-Aldrich). The cell culture was conducted in 75 cm^2 flasks (Nunc) under standard conditions (37 °C, 5% CO2 humidified atmosphere). Furthermore, the cell lines were frequently tested for mycoplasma using the qRT-PCR technique with specific Mycoplasma primers to confirm the lack of contamination.
(§2) The cells were seeded in 96-well plates (Nunc) with 5,000 or 4,000 cells per well for the cancer cells and NHDF, respectively, and incubated under standard conditions at 37 °C overnight. The culture media were then changed for freshly prepared solutions of the tested compounds in various concentrations. After 72-h incubation the antiproliferative assay was carried out as follows: the solutions of the compounds were changed in each well to 100 µL DMEM without phenol red and 20 µL of CellTiter 96 AQueous One Solution-MTS (Promega). The plates were incubated for 1 h at 37 °C, and the absorbance was then measured at 490 nm using a multi-plate reader (Synergy 4, BioTek). The experiment for each sample was repeated at least three times.
(§3) Additionally, the compounds were also tested for their cytotoxicity against normal cells – human dermal fibroblasts (NHDF).

[2] = system: HCT 116 p53-/-; experiment: Monolayer antiproliferative MTS assay; format: cell-based, human; settings: 2D monolayer; for IC50: MTS, 72-h incubation
Source text: as §1, §2, §3

[3] = system: HCT 116 p53+/+; experiment: Monolayer antiproliferative MTS assay; format: cell-based, human; settings: 2D monolayer; for IC50: MTS, 72-h incubation
Source text: as §1, §2, §3

[4] = system: HCT 116 p53-/-; experiment: Apoptosis induction assay (Annexin V/7-AAD); format: cell-based, human; settings: 0.5 µM, 48 h; control nearly 6%
Procedure: (§4) The cells were seeded in 35 mm Petri dishes (200,000 per dish) and incubated at 37 °C overnight. The following day, the medium was changed for a freshly prepared 0.5 µM solution of 13. Analysis was carried out after 48 h using an FITC Annexin V Apoptosis Detection KIT with 7-AAD (Bio-Legend) according to the manufacturer’s protocol. In brief, both adherent and detached cells were collected, washed two times with cold PBS, and centrifuged at 300 g (5 min). Next, the cells were resuspended in 100 µL Annexin V Binding Buffer, 5 µL of FITC Annexin V, and 5 µL 7-AAD Viability Staining Solution. The samples were incubated in the dark for 15 min at room temperature. The percentage of live and apoptotic (sum of early and late apoptotic) cells was estimated using a Muse™ Cell Analyzer. The experiments were carried out three times.
(§5) Because derivative 13 affected the cell cycle progression, we decided to determine the type of induced cell death by focusing on the apoptosis pathway. The analysis was performed by measuring the green fluorescence of the annexin V – FITC dye conjugate using capillary flow cytometry. Positive staining is observed when the annexin V binds to the disintegrated membrane of apoptotic cells. […]

[5] = system: HCT 116 p53+/+; experiment: Apoptosis induction assay (Annexin V/7-AAD); format: cell-based, human; settings: 0.5 µM, 48 h; control nearly 6%
Procedure: as §4, §5

[6] = system: GLUT-1; experiment: Western blot, GLUT-1 protein level; format: cell-based, human
Procedure: The cells (500,000) were seeded in 35 mm Petri dishes (Nunc) and incubated in a solution of the tested compound (0.5 µM and 1 µM) for 24 h and 48 h. The cells were then dissociated using trypsin, collected in Eppendorf tubes, and centrifuged at 2,000 rpm. Next, cell pellets were resuspended in complete RIPA buffer containing a Halt Protease Inhibitor Cocktail and Halt Phosphatase Inhibitor Cocktail along with 0.5 M EDTA (all reagents from Thermo Fisher Scientific) and lysed on ice for 20 min. Afterward, the lysates were sonicated and centrifuged at 10,000 rpm for 10 min at 4 °C. The obtained supernatants were collected for further analysis. The protein concentration was determined using a Micro BCA™ Protein Assay Kit (Thermo Fisher Scientific) according to the manufacturer’s procedure. Equal amounts of proteins (16 µg) were electrophoresed on SDS-Page gels and transferred onto nitrocellulose membranes. Novex Sharp Pre-Stained Protein Standard (Thermo Fisher Scientific) was used as a colored molecular weight marker. The membranes were blocked in 5% non-fat milk prepared in TPBS (PBS supplemented by 0.1% Tween-20) for 1 h. After blocking, the membranes were cut, and then incubated with specific primary monoclonal antibodies (all purchased from Cell Signaling) overnight at 4 °C. The antibodies for the target proteins (CDK1 Mouse mAb #9116, p53 Mouse mAb #2524, FAS Mouse mAb #8023, GLUT-1 Rabbit mAb #12939, HO-1 Rabbit mAb #5853, p21^Waf1/Cip1 Rabbit mAb #2947, PARP #9542) were diluted 1:1000, while the antibodies for the reference proteins (GAPDH Rabbit mAb #2118, β-actin Mouse mAb #3700, and vinculin Rabbit mAb #13901) were diluted 1:2000. The following day, the membranes were washed in TPBS and incubated with horseradish peroxidase (HRP)-conjugated secondary antibodies (Anti-rabbit IgG, HRP-linked Antibody #7074 or Anti-mouse IgG, HRP-linked Antibody #7076) for 1 h at room temperature. The membranes were then washed in TPBS and incubated with a SuperSignal™ West Pico Chemiluminescent Substrate (Thermo Fisher Scientific). Finally, the membranes were visualized using a ChemiDoc™ XRS + System (Bio-Rad). The experiments were carried out four to five times. The densitometric analysis was performed using ImageJ software (Wayne Rasband, National Institutes of Health, USA).
We, therefore, decided to test the effect of the tested compound on the level of the main glucose transporter, GLUT-1. […] The validity of the described conclusions was confirmed by the results that were obtained for doxorubicin. in which p53 activation occurred at both tested time points with a concomitant decrease in the GLUT-1 levels. […] The results that were obtained from the measurements of the expression of this protein were so interesting, and at the same time, inconclusive that we additionally decided to determine the effect of the tested derivative 13 on the expression of the genes encoding selected glucose transporters.

- IC50 [2]: 94 ± 10 nM
- IC50 ([2]; Homo sapiens, HCT-116, 72 h): < 100 nM
- IC50 [3]: 69 ± 9 nM
- IC50 ([3]; Homo sapiens, HCT-116, 72 h): < 100 nM
Structure (SMILES): O=[N+]([O-])c1ccc(/C=C/c2ccnc3ccccc23)o1 [Compound 13]
- IC50 [1]: 649 ± 60 nM
- SI (selectivity index) HCT 116 p53-/- ([2]; relative to NHDF): 6.90
- SI (selectivity index) HCT 116 p53+/+ ([3]; relative to NHDF): 9.41
- percentage of apoptotic cells [4]: 30%
- percentage of apoptotic cells [5]: 40%
- GLUT-1 protein level vs control ([6]; HCT 116 p53+/+, 24-h incubation): decrease
- GLUT-1 protein level vs control ([6]; HCT 116 p53+/+, 48-h): rapid activation
- GLUT-1 protein level vs control ([6]; HCT 116 p53-/-): decrease
- GLUT-1 protein level vs untreated cells ([6]; U-251): not detectable
